Tests used:
Staphylococcus aureus = test: Minimum inhibitory concentration, suspension test; assay type: cell-based; details: 3 days at 37° C.
Experimental: (§1) Minimal inhibitory concentrations against bacteria, fungi and yeasts were determined by means of a suspension test. For this purpose, nine-stage dilution series of the respective test substances were prepared in 1:1 mixtures of CASO broth and distilled water. For the tests with mushrooms and yeasts in each case 2% dextrose was added. Each microorganism was tested separately in a test tube containing 10 ml of said culture medium. To each tube was added 0.1 ml of a suspension containing 5×10^8 colony forming units (CFU) for bacteria and 1×10^7 CFU for fungi and yeasts, respectively. Each tube was incubated for 3 days at 37° C. (bacteria) or for 4 days at 30° C. (fungi and yeasts). The minimum inhibitory concentration was defined as the concentration at which no turbidity or other visible signs of microbial growth were observed after the end of the test period.

Aspergillus brasiliensis = test: Minimum inhibitory concentration, suspension test; assay type: cell-based; details: 4 days at 30° C.
Experimental: as §1

Candida albicans = test: Minimum inhibitory concentration, suspension test; assay type: cell-based; details: 4 days at 30° C.
Experimental: as §1

Escherichia coli = test: Minimum inhibitory concentration, suspension test; assay type: cell-based; details: 3 days at 37° C.
Experimental: as §1

Pseudomonas aeruginosa = test: Minimum inhibitory concentration, suspension test; assay type: cell-based; details: 3 days at 37° C.
Experimental: as §1

[1] = test system: forearms of healthy volunteers (human skin); test: Corneometry test for moisturizing effect; assay type: in vivo; details: 3% in H2O
Experimental: To test the moisturizing effect of various substances and mixtures, the test substances were diluted with distilled water to a concentration of 2-3%. The diluted solutions were applied to the forearms of healthy volunteers (number: 12, age: 19-64 years). Before and after the simple application, the skin moisture of the treated skin areas was measured instrumentally with the aid of a Corneometer CM825, combined with a Cutometer dual MPA 580 from Courage & Khazaka. All measurements were preceded by acclimatization of the subjects in a controlled environment (21° C.±1° C., 45%±10% humidity). The measurement results are given as a percentage change from the initial value after 1 h, 2 h, 4 h, 8 h and 24 h and are summarized in Table 4.

[2] = according to EP1477157B1; cited from earlier work
[3] = BASF data sheet Elestab HP100; cited from earlier work

Minimal Inhibitory Concentration (MIC) (Staphylococcus aureus) [%]	Minimal Inhibitory Concentration (MIC) (Aspergillus brasiliensis) [%]	Minimal Inhibitory Concentration (MIC) (Candida albicans) [%]	Minimal Inhibitory Concentration (MIC) (Escherichia coli) [%]	Minimal Inhibitory Concentration (MIC) (Pseudomonas aeruginosa) [%]	Compound	corneometry, % change compared to T0 after 1 h [1]	corneometry, % change compared to T0 2 h [1]	corneometry, % change compared to T0 4 h [1]	corneometry, % change compared to T0 8 h [1]	corneometry, % change compared to T0 24 h [1]	C log P [2]	compatible pH range [3]
4.0	2.5	2.5	2.5	2.5	CCCC(O)CO (centres unmarked) [1,2-pentanediol]	+18.8%	+31.6%	+37.7%	+21.6%	+13.1%	–	–
–	–	–	–	–	CCCCC(O)CO (centres unmarked) [1,2-hexanediol]	–	–	–	–	–	+0.25	–
0.0025	0.0005	0.01	0.01	0.1	N=C(N)c1ccc(OCCCCCCOc2ccc(C(=N)N)cc2)cc1 [hexamidine diisethionate, 2-hydroxyethanesulfonic acid-4,4′-[1,6-hexanediylbis(oxy)]dibenzenecarboximidamide]	–	–	–	–	–	–	3-8
–	–	–	–	–	OCC(O)CO [glycerin]	+34.3%	+40.2%	+39.5%	+29.9%	+17.5%	–	–
–	–	–	–	–	OCCCCCCCO [1,7-heptanediol]	–	–	–	–	–	+0.46	–
